Patent publication US9149038B2, “4-amino-6-(heterocyclic)picolinates and 6-amino-2-(heterocyclic)pyrimidine-4-carboxylates and their use as herbicides” (Dow AgroSciences LLC, priority 2013, dated 2015)
Read-outs that look alike come from different tables or passages of the source.

How the values were obtained:
[1] = tested on: Key Broadleaf Weed and Crop Species; assay: Post-Emergent Test II: postemergent herbicidal activity, visual rating after 14 d (Table 7); format: in vivo; conditions: post-emergence, 336 h; for pest or weed control at 35 g/ha: 35 g ai/ha; for pest or weed control at 70 g/ha: 70 g ai/ha; for pest or weed control at 140 g/ha: 140 g ai/ha
In short: (§1)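 Plants were raised in a greenhouse for 7-21 d and treated once at the first or second true leaf stage. Compounds, dissolved in 97:3 acetone:DMSO then diluted into an aqueous acetone/isopropanol/crop oil/Triton X-155 carrier, were applied by overhead track sprayer at 187 L/ha. After 14 d with subirrigation, injury was scored visually from 0 (none) to 100 (complete kill).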

[2] = tested on: Key Grass and Sedge Weeds as well as Grass Crops; assay: Post-Emergent Test II: postemergent herbicidal activity, visual rating after 14 d (Table 8); format: in vivo; conditions: post-emergence, 336 h; for pest or weed control at 35 g/ha: 35 g ai/ha; for pest or weed control at 70 g/ha: 70 g ai/ha; for pest or weed control at 140 g/ha: 140 g ai/ha
In short: as §1

[3] = lambsquarters (Chenopodium album), read-out: Visual Growth Reduction (%) 14 Days After Application CHEAL
[4] = oilseed rape, canola (Brassica napus), read-out: Visual Growth Reduction (%) 14 Days After Application BRSNN
[5] = sunflower (Helianthus annuus), read-out: Visual Growth Reduction (%) 14 Days After Application HELAN
[6] = velvetleaf (Abutilon theophrasti), read-out: Visual Growth Reduction (%) 14 Days After Application ABUTH
[7] = wild poinsettia (Euphorbia heterophylla), read-out: Visual Growth Reduction (%) 14 Days After Application EPHHL
[8] = barnyardgrass (Echinochloa crus-galli), read-out: Visual Growth Reduction (%) 14 Days After Application ECHCG
[9] = giant foxtail (Setaria faberi), read-out: Visual Growth Reduction (%) 14 Days After Application SETFA
[10] = maize, corn (Zea mays), read-out: Visual Growth Reduction (%) 14 Days After Application ZEAMX
[11] = rice (Oryza sativa), read-out: Visual Growth Reduction (%) 14 Days After Application ORYSA
[12] = wheat, spring (Triticum aestivum), read-out: Visual Growth Reduction (%) 14 Days After Application TRZAS
[13] = yellow nutsedge (Cyperus esculentus), read-out: Visual Growth Reduction (%) 14 Days After Application CYPES
[14] = redroot pigweed (Amaranthus retroflexus), read-out: Visual Growth Reduction (%) 14 Days After Application AMARE

Structure (SMILES) | pest or weed control at 35 g/ha [1, 3] | pest or weed control at 70 g/ha [1, 3] | pest or weed control at 140 g/ha [1, 3] | pest or weed control at 35 g/ha [1, 4] | pest or weed control at 70 g/ha [1, 4] | pest or weed control at 140 g/ha [1, 4] | pest or weed control at 35 g/ha [1, 5] | pest or weed control at 70 g/ha [1, 5] | pest or weed control at 140 g/ha [1, 5] | pest or weed control at 35 g/ha [1, 6] | pest or weed control at 70 g/ha [1, 6] | pest or weed control at 140 g/ha [1, 6] | pest or weed control at 35 g/ha [1, 7] | pest or weed control at 70 g/ha [1, 7] | pest or weed control at 140 g/ha [1, 7] | pest or weed control at 35 g/ha [2, 8] | pest or weed control at 70 g/ha [2, 8] | pest or weed control at 140 g/ha [2, 8] | pest or weed control at 35 g/ha [2, 9] | pest or weed control at 70 g/ha [2, 9] | further results
Nc1c(F)c(-c2ccc3c(c2F)OC(F)(F)O3)nc(C(=O)O)c1Cl [Compound 11] | 95 to 100% | 95 to 100% | 95 to 100% | 85 to 94% | 85 to 94% | 85 to 94% | 95 to 100% | 95 to 100% | 95 to 100% | 85 to 94% | 85 to 94% | 95 to 100% | 95 to 100% | 95 to 100% | 95 to 100% | 85 to 94% | 95 to 100% | 95 to 100% | 75 to 84% | 85 to 94% | pest or weed control at 140 g/ha [2, 9]: 95 to 100%; pest or weed control at 35 g/ha [2, 10]: 60 to 74%; pest or weed control at 70 g/ha [2, 10]: 60 to 74%; pest or weed control at 140 g/ha [2, 10]: 75 to 84%; pest or weed control at 35 g/ha [2, 11]: 0 to 29%; pest or weed control at 70 g/ha [2, 11]: 0 to 29%; pest or weed control at 140 g/ha [2, 11]: 30 to 44%; pest or weed control at 35 g/ha [2, 12]: 60 to 74%; pest or weed control at 70 g/ha [2, 12]: 60 to 74%; pest or weed control at 140 g/ha [2, 12]: 75 to 84%; pest or weed control at 35 g/ha [2, 13]: 0 to 29%; pest or weed control at 70 g/ha [2, 13]: 95 to 100%; pest or weed control at 140 g/ha [2, 13]: 95 to 100%
COC(=O)c1nc(-c2cc3c(cc2Cl)OC(F)(F)O3)c(F)c(N)c1Cl [Compound 12] | 0 to 29% | 0 to 29% | 0 to 29% | 0 to 29% | 0 to 29% | 0 to 29% | 0 to 29% | 0 to 29% | 0 to 29% | 0 to 29% | 0 to 29% | 60 to 74% | 0 to 29% | 0 to 29% | 0 to 29% | 0 to 29% | 0 to 29% | 0 to 29% | 0 to 29% | 0 to 29% | pest or weed control at 35 g/ha [1, 14]: 0 to 29%; pest or weed control at 70 g/ha [1, 14]: 0 to 29%; pest or weed control at 140 g/ha [1, 14]: 0 to 29%; pest or weed control at 140 g/ha [2, 9]: 0 to 29%; pest or weed control at 35 g/ha [2, 10]: 0 to 29%; pest or weed control at 70 g/ha [2, 10]: 0 to 29%; pest or weed control at 140 g/ha [2, 10]: 0 to 29%; pest or weed control at 35 g/ha [2, 11]: 0 to 29%; pest or weed control at 70 g/ha [2, 11]: 0 to 29%; pest or weed control at 140 g/ha [2, 11]: 0 to 29%; pest or weed control at 35 g/ha [2, 12]: 0 to 29%; pest or weed control at 70 g/ha [2, 12]: 0 to 29%; pest or weed control at 140 g/ha [2, 12]: 0 to 29%; pest or weed control at 35 g/ha [2, 13]: 0 to 29%; pest or weed control at 70 g/ha [2, 13]: 0 to 29%; pest or weed control at 140 g/ha [2, 13]: 0 to 29%
Nc1c(F)c(-c2cc3c(cc2F)OC(F)(F)O3)nc(C(=O)O)c1Cl [Compound 13] | 60 to 74% | 85 to 94% | 85 to 94% | 0 to 29% | 30 to 44% | 45 to 59% | 85 to 94% | 85 to 94% | 85 to 94% | 60 to 74% | 75 to 84% | 75 to 84% | 45 to 59% | 75 to 84% | 95 to 100% | 75 to 84% | 95 to 100% | 85 to 94% | 75 to 84% | 75 to 84% | pest or weed control at 35 g/ha [1, 14]: 0 to 29%; pest or weed control at 70 g/ha [1, 14]: 0 to 29%; pest or weed control at 140 g/ha [1, 14]: 0 to 29%; pest or weed control at 140 g/ha [2, 9]: 85 to 94%; pest or weed control at 35 g/ha [2, 10]: 60 to 74%; pest or weed control at 70 g/ha [2, 10]: 60 to 74%; pest or weed control at 140 g/ha [2, 10]: 75 to 84%; pest or weed control at 35 g/ha [2, 11]: 0 to 29%; pest or weed control at 70 g/ha [2, 11]: 0 to 29%; pest or weed control at 140 g/ha [2, 11]: 0 to 29%; pest or weed control at 35 g/ha [2, 12]: 45 to 59%; pest or weed control at 70 g/ha [2, 12]: 60 to 74%; pest or weed control at 140 g/ha [2, 12]: 60 to 74%; pest or weed control at 35 g/ha [2, 13]: 45 to 59%; pest or weed control at 70 g/ha [2, 13]: 75 to 84%; pest or weed control at 140 g/ha [2, 13]: 95 to 100%
